Each structure is given as a SMILES string.

These results are taken from patent publication US20240398813A1, “PHARMACEUTICAL COMPOSITION FOR PREVENTING OR TREATING OVERACTIVE BLADDER” (GWANGJU INSTITUTE OF SCIENCE AND TECHNOLOGY, priority 2021, published 2024).

In the assay the target is T1, hyperactive mutant BKCa channels (hSlo G803D/N806K) stably expressed in AD 293 cells (Homo sapiens, UniProt Q12791, G856D/N859K).
T1 construct: expressed in transfected cells
T1 sequence (Q12791 whole entry G856D/N859K): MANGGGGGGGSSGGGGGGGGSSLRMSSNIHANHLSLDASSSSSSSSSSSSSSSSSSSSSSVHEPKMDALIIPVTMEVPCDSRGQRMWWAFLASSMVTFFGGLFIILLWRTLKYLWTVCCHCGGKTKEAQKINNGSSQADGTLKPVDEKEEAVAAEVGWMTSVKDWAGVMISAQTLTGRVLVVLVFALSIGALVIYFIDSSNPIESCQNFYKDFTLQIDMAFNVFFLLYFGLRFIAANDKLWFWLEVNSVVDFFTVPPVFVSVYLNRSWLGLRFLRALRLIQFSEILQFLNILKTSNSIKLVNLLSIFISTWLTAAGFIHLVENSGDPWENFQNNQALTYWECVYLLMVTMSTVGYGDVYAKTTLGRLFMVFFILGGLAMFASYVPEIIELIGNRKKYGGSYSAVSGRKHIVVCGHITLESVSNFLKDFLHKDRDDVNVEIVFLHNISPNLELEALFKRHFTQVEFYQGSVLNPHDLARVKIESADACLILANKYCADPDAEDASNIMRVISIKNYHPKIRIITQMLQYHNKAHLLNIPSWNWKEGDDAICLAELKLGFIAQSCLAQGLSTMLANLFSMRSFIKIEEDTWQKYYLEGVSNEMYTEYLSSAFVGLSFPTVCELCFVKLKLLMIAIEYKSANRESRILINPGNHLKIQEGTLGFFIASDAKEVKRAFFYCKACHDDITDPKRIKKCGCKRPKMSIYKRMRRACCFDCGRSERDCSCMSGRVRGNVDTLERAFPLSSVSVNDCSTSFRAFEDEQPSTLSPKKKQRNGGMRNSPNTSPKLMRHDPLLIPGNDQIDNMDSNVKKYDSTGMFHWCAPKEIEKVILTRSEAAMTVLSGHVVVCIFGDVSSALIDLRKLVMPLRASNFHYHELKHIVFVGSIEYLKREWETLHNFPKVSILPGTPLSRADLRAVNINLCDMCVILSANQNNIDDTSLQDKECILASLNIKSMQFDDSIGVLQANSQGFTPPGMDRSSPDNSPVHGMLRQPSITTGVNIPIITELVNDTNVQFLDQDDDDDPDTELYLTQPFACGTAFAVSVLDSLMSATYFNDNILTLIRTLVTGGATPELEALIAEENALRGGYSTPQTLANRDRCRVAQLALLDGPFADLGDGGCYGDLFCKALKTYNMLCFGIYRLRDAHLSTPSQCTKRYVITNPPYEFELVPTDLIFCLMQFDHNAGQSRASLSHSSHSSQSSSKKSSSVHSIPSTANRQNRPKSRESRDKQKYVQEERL
Description: Cell-based fluorescence assay (FluxOR Potassium Ion Channel Assay) of BKCa channel activation. As to conditions: compounds at 5 μM; n=3; vehicle 0.26.
Take `COC(=O)c1ccc2c(=O)[nH]c3c(C(=O)Nc4cccc(F)c4)sc(=S)n3c2c1` [TTQC-2, methyl 3-((3-fluorophenyl)carbamoyl)-5-oxo-1-thioxo-4,5-dihydro-1H-thiazolo[3,4-a]quinazoline-8-carboxylate]: the “Activity (ΔRFU normalized by activities of LDD175)” value is on record as 0.99.

For the compound `CCOC(=O)c1ccc(NC(=O)c2sc(=S)n3c2[nH]c(=O)c2ccc(Cl)cc23)cc1` [TTQC-3, ethyl 4-(8-chloro-5-oxo-1-thioxo-4,5-dihydro-1H-thiazolo[3,4-a]quinazoline-3-carboxamido)benzoate], the “Activity (ΔRFU normalized by activities of LDD175)” value is 0.96. For `CCc1ccccc1NC(=O)c1sc(=S)n2c1[nH]c(=O)c1ccc(Cl)cc12` [TTQC-4, 8-chloro-N-(2-ethylphenyl)-5-oxo-1-thioxo-4,5-dihydro-1H-thiazolo[3,4-a]quinazoline-3-carboxamide] the value was 0.95; for `COc1ccccc1NC(=O)c1sc(=S)n2c1[nH]c(=O)c1cc(Cl)ccc12` [TTQC-5, 7-chloro-N-(2-methoxyphenyl)-5-oxo-1-thioxo-4,5-dihydro-1H-thiazolo[3,4-a]quinazoline-3-carboxamide], 0.90. For `CC(C)NC(=O)c1sc(=S)n2c1[nH]c(=O)c1cc(Br)ccc12` [TTQC-6, 7-bromo-N-isopropyl-5-oxo-1-thioxo-4,5-dihydro-1H-thiazolo[3,4-a]quinazoline-3-carboxamide], the “Activity (ΔRFU normalized by activities of LDD175)” value was 0.90. As for `Cc1ccc2c(c1)c(=O)[nH]c1c(C(=O)Nc3cc(Cl)ccc3C)sc(=S)n12` [TTQC-7, N-(5-chloro-2-methylphenyl)-7-methyl-5-oxo-1-thioxo-4,5-dihydro-1H-thiazolo[3,4-a]quinazoline-3-carboxamide], the figure is 0.89. For `COC(=O)c1ccc2c(=O)[nH]c3c(C(=O)NCc4ccccc4Cl)sc(=S)n3c2c1` [TTQC-8, methyl 3-((2-chlorobenzyl)carbamoyl)-5-oxo-1-thioxo-4,5-dihydro-1H-thiazolo[3,4-a]quinazoline-8-carboxylate] the value was 0.84. As for `Cc1ccc(NC(=O)c2sc(=S)n3c2[nH]c(=O)c2cc(Cl)ccc23)c(C)c1` [TTQC-9, 7-chloro-N-(2,4-dimethylphenyl)-5-oxo-1-thioxo-4,5-dihydro-1H-thiazolo[3,4-a]quinazoline-3-carboxamide], the figure is 0.84; as for `Cc1ccc(NC(=O)c2sc(=S)n3c2[nH]c(=O)c2cc(Br)ccc23)c(C)c1` [TTQC-10, 7-bromo-N-(2,4-dimethylphenyl)-5-oxo-1-thioxo-4,5-dihydro-1H-thiazolo[3,4-a]quinazoline-3-carboxamide], 0.83.

For the compound `Cc1ccc2c(c1)c(=O)[nH]c1c(C(=O)Nc3ccccc3C)sc(=S)n12` [TTQC-11, 7-methyl-5-oxo-1-thioxo-N-(o-tolyl)-4,5-dihydro-1H-thiazolo[3,4-a]quinazoline-3-carboxamide], the “Activity (ΔRFU normalized by activities of LDD175)” value is on record as 0.82. As for `Cc1ccc(Cl)cc1NC(=O)c1sc(=S)n2c1[nH]c(=O)c1cc3c(cc12)OCO3` [TTQC-12, N-(5-chloro-2-methylphenyl)-5-oxo-1-thioxo-4,5-dihydro-1H-[1,3]dioxolo[4,5-g]thiazolo[3,4-a]quinazoline-3-carboxamide], the figure is 0.81; as for `COC(=O)c1ccc2c(=O)[nH]c3c(C(=O)Nc4ccc(F)cc4F)sc(=S)n3c2c1` [TTQC-13, methyl 3-((2,4-difluorophenyl)carbamoyl)-5-oxo-1-thioxo-4,5-dihydro-1H-thiazolo[3,4-a]quinazoline-8-carboxylate], 0.79.

As to `Cc1ccc(CNC(=O)c2sc(=S)n3c2[nH]c(=O)c2cc(Br)ccc23)cc1` [TTQC-14, 7-bromo-N-(4-methylbenzyl)-5-oxo-1-thioxo-4,5-dihydro-1H-thiazolo[3,4-a]quinazoline-3-carboxamide], the “Activity (ΔRFU normalized by activities of LDD175)” value was determined as 0.76. `COc1ccc(OC)c(NC(=O)c2sc(=S)n3c2[nH]c(=O)c2cc(Br)ccc23)c1` [TTQC-15, 7-bromo-N-(2,5-dimethoxyphenyl)-5-oxo-1-thioxo-4,5-dihydro-1H-thiazolo[3,4-a]quinazoline-3-carboxamide]: the “Activity (ΔRFU normalized by activities of LDD175)” value was 0.71.

`O=C(NCC1CCCO1)c1sc(=S)n2c1[nH]c(=O)c1cc(Br)ccc12` (stereo not drawn) [TTQC-16, 7-bromo-5-oxo-N-((tetrahydrofuran-2-yl)methyl)-1-thioxo-4,5-dihydro-1H-[1,3]thiazolo[3,4-a]quinazoline-3-carboxamide]: the “Activity (ΔRFU normalized by activities of LDD175)” value came to 0.64.

For `COc1cc2c(=O)[nH]c3c(C(=O)Nc4cc(Cl)ccc4C)sc(=S)n3c2cc1OC` [TTQC-17, N-(5-chloro-2-methylphenyl)-7,8-dimethoxy-5-oxo-1-thioxo-4,5-dihydro-1H-thiazolo[3,4-a]quinazoline-3-carboxamide], the “Activity (ΔRFU normalized by activities of LDD175)” value was determined as 0.64. For `COc1ccc(OC)c(NC(=O)c2sc(=S)n3c2[nH]c(=O)c2cc(C)ccc23)c1` [TTQC-18, N-(2,5-dimethoxyphenyl)-7-methyl-5-oxo-1-thioxo-4,5-dihydro-1H-thiazolo[3,4-a]quinazoline-3-carboxamide] the value was 0.63; for `CCc1ccccc1NC(=O)c1sc(=S)n2c1[nH]c(=O)c1cc3c(cc12)OCO3` [TTQC-19, N-(2-ethylphenyl)-5-oxo-1-thioxo-4,5-dihydro-1H-[1,3]dioxolo[4,5-g]thiazolo[3,4-a]quinazoline-3-carboxamide], 0.62. Consider `O=C(NCc1ccccc1Cl)c1sc(=S)n2c1[nH]c(=O)c1cc(Br)ccc12` [TTQC-20, 7-bromo-N-(2-chlorobenzyl)-5-oxo-1-thioxo-4,5-dihydro-1H-thiazolo[3,4-a]quinazoline-3-carboxamide], for which the “Activity (ΔRFU normalized by activities of LDD175)” value was determined as 0.62. As for `O=C(NCc1ccccc1Cl)c1sc(=S)n2c1[nH]c(=O)c1cc(Cl)ccc12` [TTQC-21, 7-chloro-N-(2-chlorobenzyl)-5-oxo-1-thioxo-4,5-dihydro-1H-thiazolo[3,4-a]quinazoline-3-carboxamide], the figure is 0.60; as for `COc1cc2c(=O)[nH]c3c(C(=O)Nc4ccccc4)sc(=S)n3c2cc1OC` [TTQC-22, 7,8-dimethoxy-5-oxo-N-phenyl-1-thioxo-4,5-dihydro-1H-thiazolo[3,4-a]quinazoline-3-carboxamide], 0.57. As for `O=C(NC1CCCC1)c1sc(=S)n2c1[nH]c(=O)c1ccc(Cl)cc12` [TTQC-23, 8-chloro-N-cyclopentyl-5-oxo-1-thioxo-4,5-dihydro-1H-thiazolo[3,4-a]quinazoline-3-carboxamide], the figure is 0.55.

For `COc1ccccc1NC(=O)c1sc(=S)n2c1[nH]c(=O)c1cc3c(cc12)OCO3` [TTQC-24, N-(2-methoxyphenyl)-5-oxo-1-thioxo-4,5-dihydro-1H-[1,3]dioxolo[4,5-g]thiazolo[3,4-a]quinazoline-3-carboxamide], the “Activity (ΔRFU normalized by activities of LDD175)” value came to 0.51. For `CNC(=O)c1sc(=S)n2c1[nH]c(=O)c1ccc(Cl)cc12` [TTQC-25, 8-chloro-N-methyl-5-oxo-1-thioxo-4,5-dihydro-1H-thiazolo[3,4-a]quinazoline-3-carboxamide] the value was 0.50.
